Tested on: Aβ42-treated hippocampal neurons
Test: In vitro amyloid synaptotoxicity model: mushroom spine percentage in primary hippocampal neuronal cultures
Format: cell-based, mouse
Conditions: 24 h, mean ± SEM
Protocol: The average percentages of mushroom spines (MS%) in each experimental condition are presented as mean ± SEM (n = 20–30 neurons for each group from three batches of cultures). We observed that 24-h incubation in the presence of 1 µM and 100 nM of C20 rescues mushroom spine loss in Aβ42-treated hippocampal neurons. C20 lost its activity at a 10 nM concentration (Figure 2B, mushroom spine percentage (MS%) in the Control, 29.07 ± 1.15%; Control + C20 [1 µM], 31.32 ± 1.46%; Control + C20 [100 nM], 30.11 ± 0.86%; Control + C20 [10 nM]; […]; Aβ42, 19.82 ± 1.13%; Aβ42 + C20 [1 µM], 29.00 ± 1.94%; Aβ42 + C20 [100 nM], 27.28 ± 1.81%; Aβ42 + C20 [10 nM], 18.64 ± 1.63%; two-way ANOVA following Tukey’s multiple comparisons test, P values are indicated in the Figure).
Primary hippocampal neuronal cultures were prepared as previously described. Briefly, hippocampuses from postnatal day 0–2 FVB/NJ mice were removed and cut into small pieces in ice-cold buffer (1% 10x CMF-HBSS (Gibco, Grand Island, NY, USA; #14185), 1% Pen Strep (Gibco, #15140), 16 MM HEPES (Sigma, St Louis, MO, USA; #H3375), 10 MM NaHCO3 (Sigma, #S5761); pH = 7.2). Cell tissue was dissociated by trituration with 5 mg/mL DNase I solution (Sigma, #DN-25) after papain (Worthington, Columbus, OH, USA; #LK003176) digestion for 30 min at 37 °C. Hippocampal neurons were plated onto poly-D-lysine (Sigma, #P0899) coated 12 mm glass coverslips (Thermo Scientific, Braunschweig, Germany; #CB00120RA1) in 24-well dishes. in Neurobasal/B-27 with the addition of insulin-transferrin-sodium selenite (Sigma-Aldrich). Cells were grown in 1 mL of Neurobasal medium (Gibco, #10888) supplemented with 1% FBS (Gibco, #10500), 2% 50xB27 (Gibco, #17504), 0.05 MM L- Glutamine (Gibco, #250030). The cultures were maintained at 37 °C in a 5% CO2 incubator. Half of the medium was replaced with a new culture medium at DIV 7 and DIV 14. At DIV 14, neurons were fixed for 10 min with 4% paraformaldehyde sucrose in PBS at room temperature.
Neurons were transfected using the calcium phosphate method at DIV 7 as previously described with alterations that were described earlier. The transfection kit was obtained from Clontech (TAKARA Biotechnology, Mountain View, CA, USA; #631312).
Aβ42 peptides were purchased from AnaSpec (Anaspec, Freemont, CA, USA; #AS-20276). Stock solution [1 mg/mL] was prepared as described earlier and stored at −20 °C. Working Aβ42 solution was made immediately prior to treatment of the cells by diluting the stock concentration to 6.6 µM final Aβ peptide concentrations in Neurobasal. The working solution was incubated at +4 °C for 24 h to obtain the oligomeric conditions as described. […]

COc1cc2c(cc1OC)C(c1cc3ccccc3oc1=O)=NC(C)(C)C2 [C20, 3-(3-,4-Dihydro-6,7-dimethoxy-3,3-dimethyl-1-isoquinolinyl)-2H-1-benzopyran-2-one]
mushroom spine percentage (MS%) (Aβ42-treated cultures + 10 nM, Aβ42 alone 19.82 ± 1.13%): 18.64 ± 1.63% | mushroom spine percentage (MS%) (Aβ42-treated cultures + 100 nM, Aβ42 alone 19.82 ± 1.13%): 27.28 ± 1.81% | mushroom spine percentage (MS%) (Aβ42-treated cultures + 1 µM, Aβ42 alone 19.82 ± 1.13%): 29.00 ± 1.94% | mushroom spine percentage (MS%) (Control cultures + 100 nM, Control 29.07 ± 1.15%): 30.11 ± 0.86%

From paper PMC9653995, “New Positive TRPC6 Modulator Penetrates Blood–Brain Barrier, Eliminates Synaptic Deficiency and Restores Memory Deficit in 5xFAD Mice” (International Journal of Molecular Sciences, 2022)
